Results: US20100105673A1, “SUBSTITUTED AMINOFURANONES AND THEIR USE” (priority 2006, published 2010)

What follows are compounds tested against T1, HIV-1 protease wild type protein (Human immunodeficiency virus type 1 group M subtype B, UniProt P04585) (assay: Biochemical Protease Assay).
T1 construct: 20 μl of 0.2−1 nM HIV-1 protease wild type or mutant protein; purchased AscoProt Biotech, Prague, Czech Republic
Procedure: For the determination of their in vitro activity on HIV protease the test substances are dissolved in DMSO and serially diluted. In each case 0.5 μl of substance dilution, 20 μl of 0.2−1 nM HIV-1 protease wild type or mutant protein (e.g. multiresistant isolate “35513”: L10I, I15V, L19I, K20R, E35D, M36I, R41K, I54V, L63P, H69K, A71V, T74P, I84V, L89M, L90M, 193L, AscoProt Biotech, Prague, Czech Republic) in buffer 1 (50 mM sodium acetate pH 4.9, 0.02% BSA, 0.1 mM EDTA, 0.5 mM DTT) and 20 μl of 8 μM substrate (M1865 from Bachem, Bubendorf, Switzerland; Matayoshi et al., Science 1990, 247, 954-8) in buffer 1 are added successively to a 384 well microtiter plate (Greiner, Frickenhausen, Germany), incubated for 60-180 minutes at 32° C. and the fluorescence is measured (e.g. Tecan Safire, 340 nm extinction, 520 nm emission). IC50 values are determined by graphical plotting of the substance concentration against the percentage inhibition.

`Cc1cc(-c2cccc(S(C)(=O)=O)c2)c(Cl)cc1C1=C(N)[C@@]2(CCCN(CC(=O)NCc3ccccc3)C2)OC1=O` (single isomer, unassigned) [Example 82] and `Cc1cc(-c2cccc(O)c2)c(Cl)cc1C1=C(N)C2(CCCN(CC(=O)NCc3ccccc3)C2)OC1=O` (stereo not drawn) [Example 27] are within 1.5-fold of each other in IC50: 11 nM for the first, 14 nM for the second.

Compared with `Cc1cc(-c2cccc(NS(=O)(=O)CCN3CCOCC3)c2)c(Cl)cc1C1=C(N)C2(CCCCC2)OC1=O` [Example 20], `CCC(C)CNC(=O)CN1CCCC2(C1)OC(=O)C(c1cc(Cl)c(-c3cccc(S(C)(=O)=O)c3)cc1C)=C2N` (stereo not drawn) [Example 79] is 6-fold lower in IC50: 510 nM for the first, 85 nM for the second. The second is the more potent here.

`Cc1cc(-c2cccc(S(C)(=O)=O)c2)c(Cl)cc1C1=C(N)C2(CCCN(CC(=O)NCc3cccc(F)c3F)C2)OC1=O` (stereo not drawn) [Example 51] and `Cc1cc(-c2cccc(S(C)(=O)=O)c2)c(Cl)cc1C1=C(N)[C@@]2(CCCN(CC(=O)NCc3cccs3)C2)OC1=O` (single isomer, unassigned) [Example 84] are within 1.5-fold of each other in IC50: 2.6 nM for the first, 2.5 nM for the second.
